Laboratory results taken from ChEMBL document CHEMBL1201862, “PubChem BioAssay data set” (2004).
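The compound was tested at five concentrations on cells cultured in 96-well plates, with a 48-hour exposure period. GI50 is the concentration that inhibits growth by half.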 Calls of active or inactive are those of the source. Cut-off read from the data, not from the text of the source: active = GI50 up to about 1.1 µM and inactive = higher.

Columns and labels:
Assay in all cases: growth of human tumour cells (NCI), 48 h
786-0 = tested on: 786-0
A498 = tested on: A498
A549 = tested on: A549
ACHN = tested on: ACHN
BT-549 = tested on: BT-549
CAKI-1 = tested on: CAKI-1
CCRF-CEM = tested on: CCRF-CEM
COLO 205 = tested on: COLO 205
DU-145 = tested on: DU-145
EKVX = tested on: EKVX
HCC 2998 = tested on: HCC 2998
HCT-116 = tested on: HCT-116
HCT-15 = tested on: HCT-15
HL-60 = tested on: HL-60
HOP-62 = tested on: HOP-62
HOP-92 = tested on: HOP-92
Hs-578T = tested on: Hs-578T
IGROV-1 = tested on: IGROV-1
K562 = tested on: K562
KM12 = tested on: KM12
LOX IMVI = tested on: LOX IMVI
M14 = tested on: M14
MCF7 = tested on: MCF7
MDA-MB-231 = tested on: MDA-MB-231
MDA-MB-435 = tested on: MDA-MB-435
MDA-N = tested on: MDA-N
MOLT-4 = tested on: MOLT-4
Malme-3M = tested on: Malme-3M
NCI-H226 = tested on: NCI-H226
NCI-H23 = tested on: NCI-H23
NCI-H460 = tested on: NCI-H460
NCI-H522 = tested on: NCI-H522
NCI/ADR-RES = tested on: NCI/ADR-RES
OVCAR-3 = tested on: OVCAR-3
OVCAR-4 = tested on: OVCAR-4
OVCAR-5 = tested on: OVCAR-5
OVCAR-8 = tested on: OVCAR-8
PC-3 = tested on: PC-3
RPMI-8226 = tested on: RPMI-8226
RXF 393 = tested on: RXF 393
SF-268 = tested on: SF-268
SF-295 = tested on: SF-295
SF-539 = tested on: SF-539
SK-MEL-28 = tested on: SK-MEL-28
SK-MEL-2 = tested on: SK-MEL-2
SK-MEL-5 = tested on: SK-MEL-5
SK-OV-3 = tested on: SK-OV-3
SN12C = tested on: SN12C
SNB-19 = tested on: SNB-19
SNB-75 = tested on: SNB-75
SW-620 = tested on: SW-620
T47D = tested on: T47D
TK-10 = tested on: TK-10
U-251 = tested on: U-251
UACC-257 = tested on: UACC-257
UACC-62 = tested on: UACC-62
UO-31 = tested on: UO-31
HT-29 = tested on: HT-29
SR = tested on: SR

In the case of `CN(C)CCCNc1nnc(NCCCN(C)C)c2c(=O)c3sccc3[nH]c12`, the GI50 (786-0) is reported as 4.59 µM (inactive), the GI50 (A498) is reported as 41.4 µM (inactive) and the GI50 (A549) is reported as 5.41 µM (inactive). The GI50 (ACHN) was 5.85 µM (inactive), the GI50 (BT-549) was 32.1 µM (inactive) and the GI50 (CAKI-1) was 5.05 µM (inactive). For the same compound, the GI50 (CCRF-CEM) was 9.48 µM (inactive), the GI50 (COLO 205) was 2.82 µM (inactive) and the GI50 (DU-145) was 8.75 µM (inactive). The GI50 (EKVX) was 8.91 µM (inactive), the GI50 (HCC 2998) was 6.68 µM (inactive) and the GI50 (HCT-116) was 9.46 µM (inactive). For the same compound, the GI50 (HCT-15) was 6.62 µM, the GI50 (HL-60) was 3.59 µM (inactive) and the GI50 (HOP-62) was 5.77 µM (inactive). The GI50 (HOP-92) was 35.8 µM (inactive), the GI50 (Hs-578T) was 23.2 µM (inactive) and the GI50 (IGROV-1) was 5.69 µM (inactive). For the same compound, the GI50 (K562) was 3.48 µM (inactive), the GI50 (KM12) was 5.75 µM (inactive) and the GI50 (LOX IMVI) was 14 µM (inactive). The GI50 (M14) was 11.7 µM (inactive), the GI50 (MCF7) was 5.64 µM (inactive) and the GI50 (MDA-MB-231) was 6 µM (inactive). For the same compound, the GI50 (MDA-MB-435) was 8.15 µM (inactive), the GI50 (MDA-N) was 3.4 µM (inactive) and the GI50 (MOLT-4) was 3.24 µM (inactive). The GI50 (Malme-3M) was 15.5 µM (inactive), the GI50 (NCI-H226) was 8.95 µM (inactive) and the GI50 (NCI-H23) was 10.8 µM (inactive). For the same compound, the GI50 (NCI-H460) was 3.51 µM (inactive), the GI50 (NCI-H522) was 4.02 µM (inactive) and the GI50 (NCI/ADR-RES) was 8.15 µM (inactive). For the same compound, the GI50 (OVCAR-3) was 14.2 µM (inactive), the GI50 (OVCAR-4) was 5.42 µM (inactive) and the GI50 (OVCAR-5) was 16.6 µM (inactive). The GI50 (OVCAR-8) was 3 µM (inactive), the GI50 (PC-3) was 6.01 µM (inactive) and the GI50 (RPMI-8226) was 9.02 µM (inactive). For the same compound, the GI50 (RXF 393) was 15 µM (inactive), the GI50 (SF-268) was 5.53 µM (inactive) and the GI50 (SF-295) was 13.7 µM (inactive). The GI50 (SF-539) was 5.51 µM (inactive), the GI50 (SK-MEL-28) was 28.8 µM (inactive) and the GI50 (SK-MEL-2) was 18.4 µM (inactive). The GI50 (SK-MEL-5) was 1.4 µM (inactive), the GI50 (SK-OV-3) was 12.9 µM (inactive) and the GI50 (SN12C) was 3.19 µM (inactive). For the same compound, the GI50 (SNB-19) was 31.7 µM (inactive), the GI50 (SNB-75) was 6.73 µM (inactive) and the GI50 (SW-620) was 4.56 µM (inactive). For the same compound, the GI50 (T47D) was 19.4 µM (inactive), the GI50 (TK-10) was 9.86 µM (inactive) and the GI50 (U-251) was 22.2 µM (inactive). The GI50 (UACC-257) was 22.4 µM (inactive), the GI50 (UACC-62) was 14.2 µM (inactive) and the GI50 (UO-31) was 2.75 µM (inactive).
For `COc1ccc(C(OCC2OC3(COC(c4ccccc4)(c4ccc(OC)cc4)c4ccc(OC)cc4)C(Oc4nc(=O)ccn43)C2O)(c2ccccc2)c2ccc(OC)cc2)cc1` (centres undefined), the GI50 (786-0) was > 100 µM (inactive), the GI50 (A549) was > 100 µM (inactive) and the GI50 (ACHN) was > 100 µM (inactive). For the same compound, the GI50 (BT-549) was > 100 µM (inactive), the GI50 (CAKI-1) was > 100 µM (inactive) and the GI50 (CCRF-CEM) was > 100 µM (inactive). The GI50 (COLO 205) was > 100 µM (inactive), the GI50 (DU-145) was > 100 µM (inactive) and the GI50 (EKVX) was > 100 µM (inactive). For the same compound, the GI50 (HCT-116) was > 100 µM (inactive), the GI50 (HCT-15) was greater than 100 µM and the GI50 (HL-60) was > 100 µM (inactive). The GI50 (HOP-62) was > 100 µM (inactive), the GI50 (HT-29) was > 100 µM (inactive) and the GI50 (Hs-578T) was 10.8 µM (inactive). For the same compound, the GI50 (IGROV-1) was > 100 µM (inactive), the GI50 (K562) was > 100 µM (inactive) and the GI50 (KM12) was > 100 µM (inactive). The GI50 (LOX IMVI) was > 100 µM (inactive), the GI50 (M14) was > 100 µM (inactive) and the GI50 (MCF7) was > 100 µM (inactive). The GI50 (MDA-MB-231) was > 100 µM (inactive), the GI50 (MDA-MB-435) was > 100 µM (inactive) and the GI50 (MDA-N) was > 100 µM (inactive). For the same compound, the GI50 (MOLT-4) was > 100 µM (inactive), the GI50 (Malme-3M) was > 100 µM (inactive) and the GI50 (NCI-H226) was > 100 µM (inactive). For the same compound, the GI50 (NCI-H23) was > 100 µM (inactive), the GI50 (NCI-H522) was > 100 µM (inactive) and the GI50 (NCI/ADR-RES) was > 100 µM (inactive). The GI50 (OVCAR-3) was > 100 µM (inactive), the GI50 (OVCAR-4) was > 100 µM (inactive) and the GI50 (OVCAR-5) was > 100 µM (inactive). For the same compound, the GI50 (OVCAR-8) was > 100 µM (inactive), the GI50 (PC-3) was > 100 µM (inactive) and the GI50 (RPMI-8226) was 71.1 µM (inactive). The GI50 (RXF 393) was > 100 µM (inactive), the GI50 (SF-268) was > 100 µM (inactive) and the GI50 (SF-295) was > 100 µM (inactive). The GI50 (SF-539) was > 100 µM (inactive), the GI50 (SK-MEL-28) was > 100 µM (inactive) and the GI50 (SK-MEL-2) was > 100 µM (inactive). For the same compound, the GI50 (SK-MEL-5) was > 100 µM (inactive), the GI50 (SK-OV-3) was > 100 µM (inactive) and the GI50 (SN12C) was > 100 µM (inactive). The GI50 (SNB-19) was 88.9 µM (inactive), the GI50 (SR) was > 100 µM (inactive) and the GI50 (SW-620) was > 100 µM (inactive). The GI50 (T47D) was > 100 µM (inactive), the GI50 (TK-10) was > 100 µM (inactive) and the GI50 (U-251) was > 100 µM (inactive). For the same compound, the GI50 (UACC-257) was > 100 µM (inactive), the GI50 (UACC-62) was > 100 µM (inactive) and the GI50 (UO-31) was > 100 µM (inactive).
With `COC(=O)c1c(OC)cc2cc3c(c(O)c2c1C)C(=O)C1(O)C(=O)C=C(OC)C(OC(=O)CC(C)N)=C1C3=O` (centres undefined) the GI50 (786-0) was 13.6 µM (inactive), the GI50 (A549) was 18.6 µM (inactive) and the GI50 (ACHN) was 8.65 µM (inactive). The GI50 (BT-549) was 34.7 µM (inactive), the GI50 (CAKI-1) was 14.2 µM (inactive) and the GI50 (CCRF-CEM) was 4.74 µM (inactive). For the same compound, the GI50 (COLO 205) was > 100 µM (inactive), the GI50 (DU-145) was 11.6 µM (inactive) and the GI50 (EKVX) was 20 µM (inactive). The GI50 (HCC 2998) was 6.68 µM (inactive), the GI50 (HCT-116) was 4.28 µM (inactive) and the GI50 (HCT-15) was 17.3 µM. For the same compound, the GI50 (HL-60) was 16.4 µM (inactive), the GI50 (HOP-62) was 29 µM (inactive) and the GI50 (HOP-92) was 18.2 µM (inactive). The GI50 (HT-29) was 4.88 µM (inactive), the GI50 (Hs-578T) was 7.52 µM (inactive) and the GI50 (IGROV-1) was 13.6 µM (inactive). The GI50 (KM12) was 5.64 µM (inactive), the GI50 (LOX IMVI) was 8.49 µM (inactive) and the GI50 (M14) was 32.7 µM (inactive). For the same compound, the GI50 (MCF7) was 15.6 µM (inactive), the GI50 (MDA-MB-231) was 8.47 µM (inactive) and the GI50 (MDA-MB-435) was 41.2 µM (inactive). For the same compound, the GI50 (MDA-N) was > 100 µM (inactive), the GI50 (MOLT-4) was 5.32 µM (inactive) and the GI50 (NCI-H23) was 8.95 µM (inactive). The GI50 (NCI-H460) was 7.05 µM (inactive), the GI50 (NCI-H522) was 12.1 µM (inactive) and the GI50 (NCI/ADR-RES) was 23.2 µM (inactive). For the same compound, the GI50 (OVCAR-3) was 22.6 µM (inactive), the GI50 (OVCAR-4) was 18.3 µM (inactive) and the GI50 (OVCAR-5) was 87.3 µM (inactive). The GI50 (OVCAR-8) was 11.9 µM (inactive), the GI50 (PC-3) was 20.9 µM (inactive) and the GI50 (RPMI-8226) was 7.6 µM (inactive). For the same compound, the GI50 (SF-268) was 16.5 µM (inactive), the GI50 (SF-295) was 7.69 µM (inactive) and the GI50 (SF-539) was 8.59 µM (inactive). The GI50 (SK-MEL-28) was 31.3 µM (inactive), the GI50 (SK-MEL-2) was 15.2 µM (inactive) and the GI50 (SK-MEL-5) was 26.9 µM (inactive). For the same compound, the GI50 (SN12C) was > 100 µM (inactive), the GI50 (SNB-19) was 6.41 µM (inactive) and the GI50 (SNB-75) was 2.54 µM (inactive). For the same compound, the GI50 (SR) was 12.9 µM (inactive), the GI50 (SW-620) was 37.7 µM (inactive) and the GI50 (T47D) was 20.9 µM (inactive). The GI50 (TK-10) was 22.1 µM (inactive), the GI50 (U-251) was 33.5 µM (inactive) and the GI50 (UACC-257) was 19.4 µM (inactive). The GI50 (UACC-62) was 17.1 µM (inactive) and the GI50 (UO-31) was 18.7 µM (inactive).
